Test results from publication PMC6404402, “Design of indole- and MCR-based macrocycles as p53-MDM2 antagonists” (Beilstein Journal of Organic Chemistry, 2019).
Where “and” joins values, the source holds several entries; their conditions need not be identical. Identical values can stand only once. One block for each compound: values may come before it.

Columns and labels:
[1] = Ugi macrocyclisation (intramolecular U-4C-3CR type): alpha,omega-amino acid + indole-3-carboxaldehyde (imine formation, MW 120 °C, 1 h), then tert-butyl isocyanide (MW 120 °C, 1 h); ring bond formed = amide between carboxyl C and amine N (via Mumm acyl transfer); conditions: the molecule shown is the open-chain precursor, MeOH, 100.0 mM, 2.0 h
[2] = target: 15N-labeled MDM2 (N-terminal domain of human MDM2, residues 1-118) (Homo sapiens, UniProt Q00987); assay: 1H,15N HSQC NMR titration of 15N-labeled MDM2; format: binding; conditions: 1H,15N HSQC titration, 7–9 ligand/protein ratios 0 to 5; 0.20–0.35 mM 15N MDM2; 50 mM phosphate pH 7.4, 150 mM NaCl, 5 mM DTT, 10% D2O; 300K; 50 mM ligand stock in DMSO; weighted mean of KD's of most perturbed residues in fast chemical exchange
Chain of 15N-labeled MDM2 (N-terminal domain of human MDM2, residues 1-118) (Q00987 1-118): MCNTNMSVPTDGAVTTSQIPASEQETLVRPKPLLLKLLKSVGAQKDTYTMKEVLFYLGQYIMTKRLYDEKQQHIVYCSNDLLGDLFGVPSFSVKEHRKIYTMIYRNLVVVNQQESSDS
Protocol: Protein expression and purification
Fragment of the N-terminal domain of human MDM2 (residues 1-118) was cloned into the pET-20 (Novagen) and expressed in E. coli strain BL21-CodonPlus(DE3)-RIL as described previously.1 In brief, cells were cultured at 37 °C. Protein expression was induced with 1 mM IPTG at OD600 of 0.8 and cultured for additional 5 h at 37 °C. Cells were collected by centrifugation and lysed by sonication. Inclusion bodies were collected by centrifugation, washed with PBS containing 0.05% Triton-X100 and subsequently solubilized in 6 M guanidine hydrochloride in 100 mM Tris-HCl, pH 8.0, containing 1 mM EDTA and 10 mM β-mercaptoethanol. The protein was dialyzed against 4 M guanidine hydrochloride pH 3.5 supplemented with 10 mM β-mercaptoethanol. Following, the protein was refolded by dropwise addition into 10 mM Tris-HCl, pH 7.0, containing 1 mM EDTA and 10 mM β-mercaptoethanol and slow mixing overnight at 4 °C. Ammonium sulfate was added to the final concentration of 1.5 M and the refolded protein was recovered on Butyl Sepharose 4 Fast Flow (GE Healthcare). […]
Uniform 15N isotope labeling was achieved by expression of the protein in the M9 minimal media containing 15NH4Cl as the sole nitrogen source. […] Water suppression was carried out using the WATERGATE sequence.2 All the spectra were recorded at 300K using a Bruker Avance 600 MHz spectrometer with the Cryo-Platform.

Structure (SMILES): O=C(O)COCC(=O)NCCCCCCCCN=Cc1c[nH]c2cc(Cl)ccc12 [2h]
ring closure, isolated yield ([1]; 15-membered ring): 25%

Structure (SMILES): O=C(O)COCC(=O)NCCCCCCCCCCCCN=Cc1c[nH]c2ccccc12 [2f]
ring closure, isolated yield ([1]; 19-membered ring): 59%

Structure (SMILES): O=C(O)COCC(=O)NCCCCCCCCCCN=Cc1c[nH]c2ccccc12 [2e]
ring closure, isolated yield ([1]; 17-membered ring): 31%

Structure (SMILES): O=C(O)COCC(=O)NCCCCCCN=Cc1c[nH]c2cc(Cl)ccc12 [2g]
ring closure, isolated yield ([1]; 13-membered ring): 35%

Structure (SMILES): O=C(O)CSCC(=O)NCCCCN=Cc1c[nH]c2cc(Cl)ccc12 [2k]
ring closure, isolated yield ([1]; 11-membered ring): 29%

Structure (SMILES): O=C(O)COCC(=O)NCCCCCCCCN=Cc1c[nH]c2ccccc12 [2d]
ring closure, isolated yield ([1]; 15-membered ring): 33%

Structure (SMILES): O=C(O)CSCC(=O)NCCCCCCCCCCCCN=Cc1c[nH]c2cc(Cl)ccc12 [2p]
ring closure, isolated yield ([1]; 19-membered ring): 52%

Structure (SMILES): O=C(O)CSCC(=O)NCCCCCCCCN=Cc1c[nH]c2cc(Cl)ccc12 [2n]
ring closure, isolated yield ([1]; 15-membered ring): 39%

Structure (SMILES): O=C(O)COCC(=O)NCCCCCCCCCCN=Cc1c[nH]c2cc(Cl)ccc12 [2i]
ring closure, isolated yield ([1]; 17-membered ring): 51%

Structure (SMILES): O=C(O)COCC(=O)NCCCCN=Cc1c[nH]c2ccccc12 [2a]
ring closure, isolated yield ([1]; 11-membered ring): 40%

Structure (SMILES): O=C(O)CSCC(=O)NCCCCCCCCCCN=Cc1c[nH]c2cc(Cl)ccc12 [2o]
ring closure, isolated yield ([1]; 17-membered ring): 41%

Kd [2]: 9 µM and 8.9 µM
Structure (SMILES): CC(C)(C)NC(=O)C(c1c[nH]c2cc(Cl)ccc12)N1CCCCCCNC(=O)COCC1=O (centres unmarked) [2g]

Structure (SMILES): O=C(O)COCC(=O)NCCCCCCN=Cc1c[nH]c2ccccc12
ring closure, isolated yield ([1]; 13-membered ring): 51%

Structure (SMILES): O=C(O)CSCC(=O)NCCCCCCN=Cc1c[nH]c2cc(Cl)ccc12 [2m]
ring closure, isolated yield ([1]; 13-membered ring): 39%

Structure (SMILES): O=C(O)COCC(=O)NCCCCCN=Cc1c[nH]c2ccccc12 [2b]
ring closure, isolated yield ([1]; 12-membered ring): 35%

Structure (SMILES): O=C(O)COCC(=O)NCCCCCCCCCCCCN=Cc1c[nH]c2cc(Cl)ccc12 [2j]
ring closure, isolated yield ([1]; 19-membered ring): 60%

Structure (SMILES): O=C(O)CSCC(=O)NCCCCCN=Cc1c[nH]c2cc(Cl)ccc12 [2l]
ring closure, isolated yield ([1]; 12-membered ring): 35%
